Test results taken from the supplement of paper PMC10307832.

Tests used:
Assay in all cases: relative viability (nuclei count vs DMSO), 5 days (fraction); higher = more cells survive
[1] = compound: CO[C@H]1C[C@@H]2CC[C@@H](C)[C@@](O)(O2)C(=O)C(=O)N2CCCC[C@H]2C(=O)O[C@H]([C@H](C)C[C@@H]2CC[C@@H](OCCO)[C@H](OC)C2)CC(=O)[C@H](C)/C=C(\C)[C@@H](O)[C@@H](OC)C(=O)[C@H](C)C[C@H](C)/C=C/C=C/C=C/1C [Everolimus] + NC(=O)Nc1cc(-c2cccc(F)c2)sc1C(=O)N[C@H]1CCCNC1 [AZD7762] (partner 0.2 µM)
Method in brief: (§1)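 One day after seeding in 1536-well plates, lung cancer cell lines were dosed by pin tool. Dosing was either single-drug or a fixed anchor-drug dose plus five library-drug doses (not always all listed) in √10 steps. After 5 days, nuclei were stained in one fix-and-stain step and counted on 4× images, and relative viability is the nuclei count of treated wells over that of vehicle wells, given as the median of duplicate plates.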

[2] = compound: CO[C@H]1C[C@@H]2CC[C@@H](C)[C@@](O)(O2)C(=O)C(=O)N2CCCC[C@H]2C(=O)O[C@H]([C@H](C)C[C@@H]2CC[C@@H](OCCO)[C@H](OC)C2)CC(=O)[C@H](C)/C=C(\C)[C@@H](O)[C@@H](OC)C(=O)[C@H](C)C[C@H](C)/C=C/C=C/C=C/1C [Everolimus] + CS(=O)(=O)N1CCN(Cc2cc3nc(-c4cccc5[nH]ncc45)nc(N4CCOCC4)c3s2)CC1 [Pictilisib] (partner 1 µM)
Method in brief: as §1

[3] = compound: CO[C@H]1C[C@@H]2CC[C@@H](C)[C@@](O)(O2)C(=O)C(=O)N2CCCC[C@H]2C(=O)O[C@H]([C@H](C)C[C@@H]2CC[C@@H](OCCO)[C@H](OC)C2)CC(=O)[C@H](C)/C=C(\C)[C@@H](O)[C@@H](OC)C(=O)[C@H](C)C[C@H](C)/C=C/C=C/C=C/1C [Everolimus] + COc1cc2c(Oc3ccc(NC(=O)C4(C(=O)Nc5ccc(F)cc5)CC4)cc3F)ccnc2cc1OCCCN1CCOCC1 [Foretinib] (partner 0.25 µM)
Method in brief: as §1

[4] = compound: CO[C@H]1C[C@@H]2CC[C@@H](C)[C@@](O)(O2)C(=O)C(=O)N2CCCC[C@H]2C(=O)O[C@H]([C@H](C)C[C@@H]2CC[C@@H](OCCO)[C@H](OC)C2)CC(=O)[C@H](C)/C=C(\C)[C@@H](O)[C@@H](OC)C(=O)[C@H](C)C[C@H](C)/C=C/C=C/C=C/1C [Everolimus] + O=C(CCCCCCC(=O)Nc1ccccc1)NO [Vorinostat] (partner 1 µM)
Method in brief: as §1

| Cell Line | relative viability ([1]; first compound 0.01 µM) | relative viability ([1]; first compound 0.03162 µM) | relative viability ([1]; first compound 0.1 µM) | relative viability ([1]; first compound 0.3162 µM) | relative viability ([1]; first compound 1 µM) | relative viability ([2]; first compound 0.01 µM) | relative viability ([2]; first compound 0.03162 µM) | relative viability ([2]; first compound 0.1 µM) | relative viability ([2]; first compound 0.3162 µM) | relative viability ([2]; first compound 1 µM) | relative viability ([3]; first compound 0.01 µM) | relative viability ([3]; first compound 0.03162 µM) | relative viability ([3]; first compound 0.1 µM) | relative viability ([3]; first compound 0.3162 µM) | relative viability ([3]; first compound 1 µM) | relative viability ([4]; first compound 0.01 µM) | relative viability ([4]; first compound 0.03162 µM) | relative viability ([4]; first compound 0.1 µM) | relative viability ([4]; first compound 0.3162 µM) | relative viability ([4]; first compound 1 µM) |
| --- | --- | --- | --- | --- | --- | --- | --- | --- | --- | --- | --- | --- | --- | --- | --- | --- | --- | --- | --- | --- |
| NCI-H596 | 0.945 | 0.726 | 0.609 | 0.665 | 0.674 | 0.313 | 0.337 | 0.348 | 0.354 | 0.333 | 0.435 | 0.494 | 0.512 | 0.442 | 0.477 | 0.505 | 0.741 | 0.414 | 0.421 | 0.419 |
| LCLC-97TM1 | 0.273 | 0.145 | 0.189 | 0.221 | 0.148 | 0.126 | 0.123 | 0.128 | 0.135 | 0.144 | 0.833 | 0.562 | 0.915 | 0.904 | 0.862 | 0.62 | 0.616 | 0.688 | 0.659 | 0.379 |
| H3255 | 0.74 | 0.562 | 0.595 | 0.632 | 0.509 | 0.35 | 0.332 | 0.302 | 0.294 | 0.281 | 0.572 | 0.621 | 0.458 | 0.294 | 0.565 | 0.474 | 0.82 | 0.47 | 0.446 | 0.549 |
| LXF-289 | 1.18 | 1.28 | 1.17 | 1.12 | 1.24 | 0.579 | 0.624 | 0.513 | 0.555 | 0.509 | 1.03 | 1 | 0.936 | 0.99 | 1 | 0.909 | 0.831 | 0.817 | 0.987 | 0.934 |
| LC-2-ad | 0.802 | 0.85 | 0.775 | 0.79 | 0.83 | 0.456 | 0.372 | 0.386 | 0.282 | 0.283 | 0.741 | 0.659 | 0.703 | 0.674 | 0.693 | 0.851 | 0.865 | 0.759 | 0.79 | 0.728 |
| A-427 | 0.498 | 0.527 | 0.587 | 0.446 | 0.595 | 0.488 | 0.524 | 0.445 | 0.491 | 0.542 | 0.742 | 0.624 | 0.639 | 0.684 | 0.757 | 0.781 | 0.817 | 0.751 | 0.829 | 0.843 |
| NCI-H322M | 0.473 | 0.39 | 0.481 | 0.397 | 0.43 | 0.445 | 0.445 | 0.352 | 0.429 | 0.397 | 0.695 | 0.655 | 0.666 | 0.78 | 0.73 | 0.77 | 0.601 | 0.712 | 0.654 | 0.713 |
| HCC-366 | 0.371 | 0.245 | 0.334 | 0.29 | 0.209 | 0.116 | 0.0953 | 0.131 | 0.11 | 0.138 | 0.794 | 0.888 | 0.873 | 0.866 | 0.869 | 0.221 | 0.16 | 0.181 | 0.214 | 0.165 |
| NCI-H1975 | 0.591 | 0.571 | 0.533 | 0.433 | 0.531 | 0.223 | 0.242 | 0.194 | 0.211 | 0.199 | 0.765 | 0.67 | 0.714 | 0.748 | 0.579 | 0.599 | 0.587 | 0.608 | 0.565 | 0.542 |
| NCI-H1437 | 1.1 | 1.11 | 1.1 | 0.997 | 0.875 | 0.159 | 0.149 | 0.135 | 0.165 | 0.18 | 1.29 | 1.18 | 1.21 | 1.23 | 1.15 | 0.747 | 0.632 | 0.656 | 0.586 | 0.432 |
| NCI-H1651 | 0.197 | 0.218 | 0.224 | 0.208 | 0.231 | 0.368 | 0.324 | 0.352 | 0.427 | 0.39 | 0.523 | 0.556 | 0.562 | 0.431 | 0.558 | 0.424 | 0.418 | 0.36 | 0.449 | 0.405 |
| LCLC-103H | 0.561 | 0.671 | 0.629 | 0.673 | 0.608 | 0.512 | 0.459 | 0.471 | 0.479 | 0.466 | 0.597 | 0.572 | 0.522 | 0.545 | 0.574 | 0.747 | 0.755 | 0.734 | 0.712 | 0.617 |
| NCI-H1666 | 0.855 | 0.84 | 0.821 | 0.899 | 0.908 | 0.295 | 0.344 | 0.309 | 0.341 | 0.295 | 0.885 | 0.925 | 0.972 | 0.926 | 0.875 | 1.04 | 1.08 | 1.04 | 1.05 | 0.92 |
| NCI-H1734 | 0.336 | 0.365 | 0.291 | 0.283 | 0.313 | 0.285 | 0.341 | 0.259 | 0.316 | 0.336 | 0.495 | 0.529 | 0.479 | 0.467 | 0.541 | 0.613 | 0.606 | 0.505 | 0.422 | 0.563 |
